Tests used:
gammaglobin = assay: Effect of isobutyramide on percentage of gammaglobin to total gamma plus betaglobin in anemic baboons in vivo; parameters: species or system baboon (Papio anubis)
Experimental: (§1) Adult, male baboons (Papio anubis) were used as experimental animals. Three baboons were rendered anemic by daily phlebotomy for at least about 30 days, and maintained at hematocrit values of about 22% by daily phlebotomy. Each anemic baboon was treated with isobutyramide. One baboon (no. 767) received isobutyramide by oral formulation of 150 mg isobutyramide per ml of distilled sterile water administered through a naso-gastric tube three times per week for three weeks. This baboon received isobutyramide at a dosage of 600 mg per kg of body weight. Another baboon (no. 224) received isobutyramide by parenteral formulation of 150 mg isobutyramide per ml of distilled sterile water administered by intravenous infusion over a 30 minute period one time per day for three weeks. This baboon received isobutyramide at a dosage of 500 mg per kg of body weight. Another baboon (no. 207) received isobutyramide by parenteral formulation of 150 mg isobutyramide per ml of distilled sterile water administered by intravenous infusion over a 30 minute period one time per day for three days. This baboon received isobutyramide at a dosage of 500 mg per kg of body weight. The experiment was terminated with this baboon after three days due to an infection. Blood samples were taken throughout the course of treatment. Samples were assayed to determine the percentage of gammaglobin to total gamma-globin and betaglobin (Table 1) and the percentage of total reticulocytes containing gammaglobin, sometimes called "F-retics" (Table 2). The assay to measure the percentage of gammaglobin to total gamma-globin and betaglobin was by the method described in Perrine, S. P., et al., Delay In The Fetal Globin Switch In Infants Of Diabetic Mothers, New Eng. J. Med. vol.312, pp.334-338 (1985). The assay to measure the percentage of total reticulocytes containing gammaglobin was performed by the method described in Rogers, G., et al., Hematologic Response of Patients with Sickle Cell Disease To Treatment with Hydroxyurea, New Eng. J. Med., vol.322, pp.1037-1045 (1990).

[1] = system: reticulocytes containing gammaglobin (F-retics); assay: Effect of isobutyramide on percentage of F-retics to total reticulocytes in anemic baboons in vivo; parameters: species or system baboon (Papio anubis)
Experimental: as §1

[2] = standard assays; cited from earlier work
[3] = administered in therapeutically effective amounts; cited from earlier work
[4] = Plasma levels of isobutyramide after administration; assay type: in vivo, baboon and human
Experimental: Adult, male baboons (Papio anubis) were used as experimental animals. Three baboons were rendered anemic by daily phlebotomy for at least about 30 days, and maintained at hematocrit values of about 22% by daily phlebotomy. Each anemic baboon was treated with isobutyramide. One baboon (no. 767) received isobutyramide by oral formulation of 150 mg isobutyramide per ml of distilled sterile water administered through a naso-gastric tube three times per week for three weeks. This baboon received isobutyramide at a dosage of 600 mg per kg of body weight. Another baboon (no. 224) received isobutyramide by parenteral formulation of 150 mg isobutyramide per ml of distilled sterile water administered by intravenous infusion over a 30 minute period one time per day for three weeks. This baboon received isobutyramide at a dosage of 500 mg per kg of body weight. […]
Isobutyramide was administered orally to the baboon (no.767) and parenterally to another baboon (no.224) as described in Example 3. The plasma concentrations of the isobutyramide at various times after a single oral dose to those baboons are shown in FIG. 1 (measured by gas liquid chromatography and expressed in millimoles per liter ("mM")). […]

[5] = system: erythroid progenitors from peripheral blood; assay: Effect of isobutyramide in vitro on percentage of gammaglobin to total gamma plus betaglobin in cultured erythroid progenitors; assay type: cell-based, human; details: 0.2 mM, about 14 days
Experimental: Cultures of erythroid progenitors from peripheral blood of patients having a betaglobin disorder and normal subjects were cultured for about 14 days in presence of 0.2 millimoles per liter ("mM") isobutyramide and the percentages of gammaglobin to total gamma plus betaglobin were assayed substantially according to the methods described in Perrine, S. P. et al., Sodium Butyrate Enhances Fetal Globin Gene Expression in Erythroid Progenitors of Patients With Hb SS and Beta Thalassemia, Blood, vol.74, pp.454-459 (1989). The patients with sickle-cell anemia are identified as "SS" and with beta-thalassemia as "beta-thal." Ages are specified in years.

[6] = species not given; cited from earlier work

SMILES: CC(C)C(N)=O [isobutyramide, Isobutyramide]
- production of fetal hemoglobin in vivo (gammaglobin; anemic baboons, Tables 1 and 2): significantly stimulated the production of fetal hemoglobin
- Percentage of gammaglobin to total gamma plus betaglobin, treatment (highest achieved) (gammaglobin; baboon 207, 500 mg per kg i.v. infusion over 30 min, once per day for three days, pre-treatment 0): 9%
- Percentage of gammaglobin to total gamma plus betaglobin, treatment (highest achieved) (gammaglobin; baboon 224, 500 mg per kg i.v. infusion over 30 min, once per day for three weeks, pre-treatment 2): 11%
- Percentage of gammaglobin to total gamma plus betaglobin, treatment (highest achieved) (gammaglobin; baboon 767, 600 mg per kg oral (naso-gastric tube), three times per week for three weeks, pre-treatment 3): 12%
- Percentage of F-retics to total reticulocytes, treatment ([1]; baboon 207, 500 mg per kg i.v. infusion over 30 min, once per day for three days, pre-treatment 3): 15%
- Percentage of F-retics to total reticulocytes, treatment ([1]; baboon 224, 500 mg per kg i.v. infusion over 30 min, once per day for three weeks, pre-treatment 16): 27%
- Percentage of F-retics to total reticulocytes, treatment ([1]; baboon 767, 600 mg per kg oral (naso-gastric tube), three times per week for three weeks, pre-treatment 13): 17%
- mutagenicity [2]: not mutagenic
- toxicity [3]: substantially non-toxic
- plasma levels ([4]; oral and parenteral administration): sufficient to yield therapeutic effects
- half-life ([4]; plasma, after oral or parenteral administration, species not specified (baboons and humans)): 7.6 to 10.5 h
- production of fetal hemoglobin in culture ([5]; Table 3): significantly stimulated the production of fetal hemoglobin in culture
- Percentage of gammaglobin to total gamma plus betaglobin, treatment ([5]; SS (sickle-cell anemia), age 10-11, pre-treatment 22): 40%
- Percentage of gammaglobin to total gamma plus betaglobin, treatment ([5]; SS (sickle-cell anemia), pre-treatment 17): 96%
- Percentage of gammaglobin to total gamma plus betaglobin, treatment ([5]; SS (sickle-cell anemia), pre-treatment 42): 55%
- Percentage of gammaglobin to total gamma plus betaglobin, treatment ([5]; SS (sickle-cell anemia), pre-treatment 70): 78%
- Percentage of gammaglobin to total gamma plus betaglobin, treatment ([5]; beta-thal, newborn, pre-treatment 40): 50%
- Percentage of gammaglobin to total gamma plus betaglobin, treatment ([5]; beta-thal, pre-treatment 65): 98%
- Percentage of gammaglobin to total gamma plus betaglobin, treatment ([5]; beta-thal, pre-treatment 70): 64%
- Percentage of gammaglobin to total gamma plus betaglobin, treatment ([5]; normal, newborn, pre-treatment 5): 45%
- Percentage of gammaglobin to total gamma plus betaglobin, treatment ([5]; normal, newborn, pre-treatment 20): 26%
- Percentage of gammaglobin to total gamma plus betaglobin, treatment ([5]; normal, newborn, pre-treatment 69): 72%
- acute intravenous LD 50 [6]: about 3 g per kilogram
